# Measurements published in patent publication US20230140430A1, “1H-PYRAZOLO[4,3-d]PYRIMIDINE COMPOUNDS AS TOLL-LIKE RECEPTOR 7 (TLR7) AGONISTS” (BRISTOL-MYERS SQUIBB COMPANY, priority 2020, published 2023).
# Where two headings read alike, the source gives them in different places.
# Assays:
# human TLR7 = molecular target: T1, human TLR7 (Homo sapiens, UniProt Q9NYK1); test: Human TLR7 agonist activity assay (HEK-Blue TLR7 SEAP reporter); format: cell-based; settings: HEK-Blue TLR7 cells, 18 h treatment, average where assay was performed multiple times, read-out: hTLR7 Agonism EC50
# T1 construct: host or cells: HEK-Blue TLR7 cells (engineered human embryonic kidney cells)
# T1 sequence (Q9NYK1 27-1049): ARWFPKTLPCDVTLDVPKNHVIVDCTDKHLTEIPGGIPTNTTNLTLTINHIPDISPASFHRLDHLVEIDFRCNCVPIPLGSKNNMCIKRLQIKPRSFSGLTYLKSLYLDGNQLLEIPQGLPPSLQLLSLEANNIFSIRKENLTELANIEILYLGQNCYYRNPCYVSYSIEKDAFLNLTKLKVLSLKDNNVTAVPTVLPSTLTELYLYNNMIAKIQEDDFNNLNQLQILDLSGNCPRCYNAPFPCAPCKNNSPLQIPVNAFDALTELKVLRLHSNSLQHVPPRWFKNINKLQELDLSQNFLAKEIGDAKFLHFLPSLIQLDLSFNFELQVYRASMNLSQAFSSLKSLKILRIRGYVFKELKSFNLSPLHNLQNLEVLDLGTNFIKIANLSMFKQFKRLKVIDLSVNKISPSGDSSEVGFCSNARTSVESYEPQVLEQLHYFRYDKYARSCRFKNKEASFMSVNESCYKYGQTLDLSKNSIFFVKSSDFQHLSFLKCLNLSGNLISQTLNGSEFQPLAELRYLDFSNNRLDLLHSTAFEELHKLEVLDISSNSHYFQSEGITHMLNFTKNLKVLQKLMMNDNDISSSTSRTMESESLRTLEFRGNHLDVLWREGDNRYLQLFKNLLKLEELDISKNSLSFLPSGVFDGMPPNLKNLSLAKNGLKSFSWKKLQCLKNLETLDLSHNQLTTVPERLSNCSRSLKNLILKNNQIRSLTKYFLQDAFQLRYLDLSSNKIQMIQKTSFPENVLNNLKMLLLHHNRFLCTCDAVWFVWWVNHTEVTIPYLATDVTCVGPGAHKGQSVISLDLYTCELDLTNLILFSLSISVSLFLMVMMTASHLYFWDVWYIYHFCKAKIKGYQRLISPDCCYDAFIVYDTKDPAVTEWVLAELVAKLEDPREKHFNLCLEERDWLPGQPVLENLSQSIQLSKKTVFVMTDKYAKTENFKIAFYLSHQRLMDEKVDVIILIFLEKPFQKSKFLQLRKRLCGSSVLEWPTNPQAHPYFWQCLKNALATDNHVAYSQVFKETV
# Protocol: This procedure describes a method for assaying human TLR7 (hTLR7) agonist activity of the compounds disclosed in this specification.
# HEK-Blue™ TLR7 cells were added to each well of a 384-well tissue-culture plate (15,000 cells per well) and incubated 16-18 h at 37° C., 5% CO2. Compounds (100 nl) were dispensed into wells containing the HEK-Blue™ TLR cells and the treated cells were incubated at 37° C., 5% CO2. After 18 h treatment ten microliters of freshly-prepared Quanti-Blue™ reagent (Invivogen) was added to each well, incubated for 30 min (37° C., 5% CO2) and SEAP levels measured using an Envision plate reader (OD=620 nm).
# CD69 = test: Induction of CD69 in human whole blood; format: cell-based
# Protocol: The induction of Type I interferon (IFN) MX-1 genes and the B-cell activation marker CD69 are downstream events that occur upon activation of the TLR7 pathway. The following is a human whole blood assay that measures their induction in response to a TLR7 agonist.
# Heparinized human whole blood was harvested from human subjects and treated with test TLR7 agonist compounds at 1 mM. The blood was diluted with RPMI 1640 media and Echo was used to predot 10 nL per well giving a final concentration of 1 uM (10 nL in 10 uL of blood). After mixing on a shaker for 30 sec, the plates were covered and placed in a 37° C. chamber for o/n=17 hrs. Fixing/lysis buffer was prepared (5×->1× in H2O, warm at 37° C.; Cat #BD 558049) and kept the perm buffer (on ice) for later use.
# For surface markers staining (CD69): prepared surface Abs: 0.045 ul hCD14-FITC (ThermoFisher Cat #MHCD1401)+0.6 ul hCD19-ef450 (ThermoFisher Cat #48-0198-42)+1.5 ul hCD69-PE (cat #BD555531)+0.855 ul FACS buffer. Added 3 ul/well, spin1000 rpm for 1 min and mixed on shaker for 30 sec, put on ice for 30 mins. Stop stimulation after 30 min with 70 uL of prewarmed 1× fix/lysis buffer and use Feliex mate to resuspend (15 times, change tips for each plate) and incubate at 37 C for 10 min.
# Centrifuge at 2000 rpm for 5 min aspirate with HCS plate washer, mix on shaker for 30 sec and then wash with 70 uL in dPBS and pelleted 2×s (2000 rpm for 5 min) and 50 ul wash in FACS buffer pelleted 1×s (2000 rpm for 5 min). Mix on shaker for 30 sec. For Intracellular markers staining (MX-1): Add 50 ul of BD Perm buffer III and mix on shaker for 30 sec. Incubate on ice for 30 minutes (in the dark). Wash with 50 uL of FACS buffer 2× (spin @2300 rpm×5 min after perm) followed by mixing on shaker for 30 sec. Resuspended in 20 ul of FACS buffer containing MX1 antibody ( )(4812)-Alexa 647: Novus Biologicals #NBP2-43704AF647) 20 ul FACS bf+0.8 ul hlgG+0.04 ul MX-1. Spin 1000 rpm for 1 min, mix on shaker for 30se and the samples were incubated at RT in the dark for 45 minutes followed by washing 2×FACS buffer (spin @2300 rpm×5 min after perm). Resuspend 20 ul (35 uL total per well) of FACS buffer and cover with foil and place in 4° C. to read the following day. Plates were read on iQuePlus. The results were loaded into toolset and […] curves are generated in curve master. The y-axis 100% is set to 1 uM of resiquimod.
# [1] = Homo sapiens, 17 h, read-out: hWB CD69 EC50 (nM)
# [2] = human whole blood, 17 hrs, CD69 surface staining, 100% set to 1 uM of resiquimod, average where assay was performed multiple times, read-out: hWB CD69 EC50
Structure (SMILES),EC50 (human TLR7) [nM],EC50 (CD69; [1]) [nM],EC50 (CD69; [2]) [nM]
"CCCCNc1nc(N)nc2cnn(Cc3ccc(C(=O)NC4CCN(C)CC4)cc3OC3CC3)c12 [Compound 121, 4-{[5-amino-7-(butylamino)-1H-pyrazolo[4,3-d]pyrimidin-1-yl]methyl}-3-cyclopropoxy-N-(1-methylpiperidin-4-yl)benzamide]",502,99.1,–
"CCCCNc1nc(N)nc2cnn(Cc3ccc(C(=O)N4CCN(CCO)CC4)cc3OC3CC3)c12 [Compound 122, 2-[4-(4-{[5-amino-7-(butylamino)-1H-pyrazolo[4,3-d]pyrimidin-1-yl]methyl}-3-cyclopropoxybenzoyl)piperazin-1-yl]ethan-1-ol]",1190,–,340
"CCC[C@@H](CCO)Nc1nc(N)nc2cnn(Cc3ccc(C(=O)N4CCN(CCO)CC4)cc3OC)c12 [Compound 123, (3S)-3-{[5-amino-1-({4-[4-(2-hydroxyethyl)piperazine-1-carbonyl]-2-methoxyphenyl}methyl)-1H-pyrazolo[4,3-d]pyrimidin-7-yl]amino}hexan-1-ol]",115,–,71.9
"CCC1CC(CNc2nc(N)nc3cnn(Cc4ccc(C(=O)NC5CCN(C)CC5)cc4OC)c23)C1 (centres unmarked) [Compound 124, 4-[(5-amino-7-{[(3-ethylcyclobutyl)methyl]amino}-1H-pyrazolo[4,3-d]pyrimidin-1-yl)methyl]-3-methoxy-N-(1-methylpiperidin-4-yl)benzamide]",508,95.4,–
"CCC[C@@H](CCO)Nc1nc(N)nc2cnn(Cc3ccc(C(=O)NC4CCN(C)CC4)cc3OC)c12 [Compound 125, 4-[(5-amino-7-{[(3S)-1-hydroxyhexan-3-yl]amino}-1H-pyrazolo[4,3-d]pyrimidin-1-yl)methyl]-3-methoxy-N-(1-methylpiperidin-4-yl)benzamide]",747,332,–
"CCC[C@@H](CO)Nc1nc(N)nc2cnn(Cc3ccc(C(=O)NC4CCN(C)CC4)cc3OC)c12 [Compound 126, 4-[(5-amino-7-{[(2S)-1-hydroxypentan-2-yl]amino}-1H-pyrazolo[4,3-d]pyrimidin-1-yl)methyl]-3-methoxy-N-(1-methylpiperidin-4-yl)benzamide]",5000,326,–
"COc1cc(C(=O)N2CCN(CCO)CC2)ccc1Cn1ncc2nc(N)nc(NCc3cc(C)on3)c21 [Compound 127, 2-(4-{4-[(5-amino-7-{[(5-methyl-1,2-oxazo1-3-yl)methyl]amino}-1H-pyrazolo[4,3-d]pyrimidin-1-yl)methyl]-3-methoxybenzoyl}piperazin-1-yl)ethan-1-ol]",505,–,173
"CCC[C@@H](CCO)Nc1nc(N)nc2c(F)nn(Cc3ccc(C(=O)NC4CCN(C)CC4)cc3OC)c12 [Compound 128, 4-[(5-amino-3-fluoro-7-{[(3S)-1-hydroxyhexan-3-yl]amino}-1H-pyrazolo[4,3-d]pyrimidin-1-yl)methyl]-3-methoxy-N-(1-methylpiperidin-4-yl)benzamide]",179,772,–
"COc1cc(C(=O)NC2CCN(C)CC2)ccc1Cn1ncc2nc(N)nc(NCc3cc(C)on3)c21 [Compound 129, 4-[(5-amino-7-{[(5-methyl-1,2-oxazo1-3-yl)methyl]amino}-1H-pyrazolo[4,3-d]pyrimidin-1-yl)methyl]-3-methoxy-N-(1-methylpiperidin-4-yl)benzamide]",1240,67.7,–
"COc1cc(C(=O)N2CCN(C)CC2)ccc1Cn1ncc2nc(N)nc(NCc3cc(C)on3)c21 [Compound 130, 1-{[2-methoxy-4-(4-methylpiperazine-1-carbonyl)phenyl]methyl}-N7-[(5-methyl-1,2-oxazo1-3-yl)methyl]-1H-pyrazolo[4,3-d]pyrimidine-5,7-diamine]",145,–,15.8
"COc1cc(C(=O)N2CCNC(=O)C2)ccc1Cn1ncc2nc(N)nc(NCc3cc(C)on3)c21 [Compound 131, 4-{4-[(5-amino-7-{[(5-methyl-1,2-oxazo1-3-yl)methyl]amino}-1H-pyrazolo[4,3-d]pyrimidin-1-yl)methyl]-3-methoxybenzoyl}piperazin-2-one]",2190,–,363
"COc1cc(C(=O)N2CCN(C)CC2)ccc1Cn1ncc2nc(N)nc(NCc3noc(C)n3)c21 [Compound 132, 1-{[2-methoxy-4-(4-methylpiperazine-1-carbonyl)phenyl]methyl}-N7-[(5-methyl-1,2,4-oxadiazo1-3-yl)methyl]-1H-pyrazolo[4,3-d]pyrimidine-5,7-diamine]",95.1,–,10.9
"COc1cc(C(=O)N2CCN(CCO)CC2)ccc1Cn1ncc2nc(N)nc(NCc3noc(C)n3)c21 [Compound 133, 2-(4-{4-[(5-amino-7-{[(5-methyl-1,2,4-oxadiazo1-3-yl)methyl]amino}-1H-pyrazolo[4,3-d]pyrimidin-1-yl)methyl]-3-methoxybenzoyl}piperazin-1-yl)ethan-1-ol]",1870,–,552
